In the NIST ThermoML archive (doi:10.1016/j.jct.2015.08.014):
Numbers after ± are expanded uncertainties.

Experiment: xn = mol fraction of the nth substance listed
Conditions: 298.15 K, 100 kPa, Liquid, Alternating current cell with electrodes

CCCC[N+]1(C)CCCC1.N#CN=C=[N-] [1-butyl-1-methylpyrrolidinium dicyanamide] + O=C1CCCO1
electrical conductivity (Frequency=0.005 MHz, x1 = 0.3029): 2.54 ± 0.026 S/m
electrical conductivity (Frequency=0.005 MHz, x1 = 0.3845): 2.36 ± 0.024 S/m
electrical conductivity (Frequency=0.005 MHz, x1 = 0.4985): 2.08 ± 0.021 S/m
electrical conductivity (Frequency=0.005 MHz, x1 = 0.6954): 1.68 ± 0.017 S/m
electrical conductivity (Frequency=0.005 MHz, x1 = 0.9013): 1.39 ± 0.014 S/m
electrical conductivity (Frequency=0.005 MHz, x1 = 1): 1.317 ± 0.013 S/m
electrical conductivity (Frequency=0.005454 MHz, x1 = 0.0463): 1.47 ± 0.026 S/m
electrical conductivity (Frequency=0.005454 MHz, x1 = 0.0987): 2.21 ± 0.027 S/m
electrical conductivity (Frequency=0.005454 MHz, x1 = 0.1449): 2.51 ± 0.026 S/m
electrical conductivity (Frequency=0.005454 MHz, x1 = 0.1859): 2.67 ± 0.027 S/m
electrical conductivity (Frequency=0.005454 MHz, x1 = 0.2493): 2.613 ± 0.026 S/m
electrical conductivity (Frequency=0.005454 MHz, x1 = 0.3029): 2.54 ± 0.026 S/m
electrical conductivity (Frequency=0.005454 MHz, x1 = 0.3845): 2.36 ± 0.024 S/m
electrical conductivity (Frequency=0.005454 MHz, x1 = 0.4985): 2.08 ± 0.021 S/m
electrical conductivity (Frequency=0.005454 MHz, x1 = 0.6954): 1.68 ± 0.017 S/m
electrical conductivity (Frequency=0.005454 MHz, x1 = 0.9013): 1.39 ± 0.014 S/m
electrical conductivity (Frequency=0.005454 MHz, x1 = 1): 1.317 ± 0.013 S/m
electrical conductivity (Frequency=0.006 MHz, x1 = 0.0463): 1.47 ± 0.026 S/m
electrical conductivity (Frequency=0.006 MHz, x1 = 0.0987): 2.21 ± 0.027 S/m
electrical conductivity (Frequency=0.006 MHz, x1 = 0.1449): 2.51 ± 0.026 S/m
electrical conductivity (Frequency=0.006 MHz, x1 = 0.1859): 2.67 ± 0.027 S/m
electrical conductivity (Frequency=0.006 MHz, x1 = 0.2493): 2.613 ± 0.026 S/m
electrical conductivity (Frequency=0.006 MHz, x1 = 0.3029): 2.54 ± 0.026 S/m
electrical conductivity (Frequency=0.006 MHz, x1 = 0.3845): 2.36 ± 0.024 S/m
electrical conductivity (Frequency=0.006 MHz, x1 = 0.4985): 2.08 ± 0.021 S/m
electrical conductivity (Frequency=0.006 MHz, x1 = 0.6954): 1.68 ± 0.017 S/m
electrical conductivity (Frequency=0.006 MHz, x1 = 0.9013): 1.39 ± 0.014 S/m
electrical conductivity (Frequency=0.006 MHz, x1 = 1): 1.317 ± 0.013 S/m
electrical conductivity (Frequency=0.00652174 MHz, x1 = 0.0463): 1.47 ± 0.026 S/m
electrical conductivity (Frequency=0.00652174 MHz, x1 = 0.0987): 2.22 ± 0.027 S/m
electrical conductivity (Frequency=0.00652174 MHz, x1 = 0.1449): 2.51 ± 0.026 S/m
electrical conductivity (Frequency=0.00652174 MHz, x1 = 0.1859): 2.67 ± 0.027 S/m
electrical conductivity (Frequency=0.00652174 MHz, x1 = 0.2493): 2.613 ± 0.026 S/m
electrical conductivity (Frequency=0.00652174 MHz, x1 = 0.3029): 2.54 ± 0.026 S/m
electrical conductivity (Frequency=0.00652174 MHz, x1 = 0.3845): 2.36 ± 0.024 S/m
electrical conductivity (Frequency=0.00652174 MHz, x1 = 0.4985): 2.08 ± 0.021 S/m
electrical conductivity (Frequency=0.00652174 MHz, x1 = 0.6954): 1.68 ± 0.017 S/m
electrical conductivity (Frequency=0.00652174 MHz, x1 = 0.9013): 1.39 ± 0.014 S/m
electrical conductivity (Frequency=0.00652174 MHz, x1 = 1): 1.317 ± 0.013 S/m
electrical conductivity (Frequency=0.00694444 MHz, x1 = 0.0463): 1.47 ± 0.026 S/m
electrical conductivity (Frequency=0.00694444 MHz, x1 = 0.0987): 2.22 ± 0.027 S/m
electrical conductivity (Frequency=0.00694444 MHz, x1 = 0.1449): 2.51 ± 0.026 S/m
electrical conductivity (Frequency=0.00694444 MHz, x1 = 0.1859): 2.67 ± 0.027 S/m
electrical conductivity (Frequency=0.00694444 MHz, x1 = 0.2493): 2.613 ± 0.026 S/m
electrical conductivity (Frequency=0.00694444 MHz, x1 = 0.3029): 2.54 ± 0.026 S/m
electrical conductivity (Frequency=0.00694444 MHz, x1 = 0.3845): 2.36 ± 0.024 S/m
electrical conductivity (Frequency=0.00694444 MHz, x1 = 0.4985): 2.08 ± 0.021 S/m
electrical conductivity (Frequency=0.00694444 MHz, x1 = 0.6954): 1.68 ± 0.017 S/m
electrical conductivity (Frequency=0.00694444 MHz, x1 = 0.9013): 1.39 ± 0.014 S/m
electrical conductivity (Frequency=0.00694444 MHz, x1 = 1): 1.317 ± 0.013 S/m
electrical conductivity (Frequency=0.0075 MHz, x1 = 0.0463): 1.47 ± 0.026 S/m
electrical conductivity (Frequency=0.0075 MHz, x1 = 0.0987): 2.22 ± 0.027 S/m
electrical conductivity (Frequency=0.0075 MHz, x1 = 0.1449): 2.51 ± 0.026 S/m
